Data on six compounds can be found in patent US9593149B2, “Amylin and calcitonin receptor agonist” (Novo Nordisk A/S, priority 2014, dated 2017).

SMILES strings stand for the structures. ≈ marks a conversion by molar mass, not a printed value. Numbered stars: 1 amine (or outer) side, 2 acyl side, 3 side chain; on linkers, the order of the positions; unused ones are H or OH. Peptide text beside a SMILES is read from it. * marks the point of attachment. C20 diacid = O=C(O)CCCCCCCCCCCCCCCCCCC(=O)*; C18 diacid = O=C(O)CCCCCCCCCCCCCCCCC(=O)*; γGlu = O=C(O)[C@H](CCC(=O)[*:2])N[*:1]

A short description of this series: Assay (IV) determination of solubility. It counts as physicochemical. On the procedure: Assay (IV)—Determination of Solubility
The mimylin peptide was dissolved in water at ˜500 nmol/ml and mixed 1:1 with a series of buffers (100 mM glycylglycine pH 3.0, 100 mM glycylglycine pH 4.0, 100 mM glycylglycine pH 5.0, 100 mM bistrispropane pH 6.0, 100 mM bistrispropane pH 6.5, 100 mM bistrispropane pH 7.0, 100 mM bistrispropane pH 7.5, 100 mM bistrispropane pH 8.0).

Turning to `CC(C)C[C@H](NC(=O)[C@H](C)NC(=O)[C@H](C)NC(=O)[C@@H](NC(=O)[C@H](CO)NC(=O)[C@H](CC(C)C)NC(=O)[C@H](CCC(=O)O)NC(=O)[C@H](CO)NC(=O)[C@H](C)NC(=O)[C@H](CCC(=O)O)NC(=O)CC[C@H](NC(=O)CCCCCCCCCCCCCCCCCCC(=O)O)C(=O)O)[C@@H](C)O)C(=O)NCC(=O)N[C@@H](CCCNC(=N)N)C(=O)N[C@@H](CC(C)C)C(=O)N[C@@H](CO)C(=O)N[C@@H](C)C(=O)N[C@@H](CCC(=O)O)C(=O)N[C@@H](CC(C)C)C(=O)N[C@@H](Cc1cnc[nH]1)C(=O)N[C@@H](CCC(=O)O)C(=O)N[C@@H](CC(C)C)C(=O)N[C@@H](C)C(=O)N[C@H](C(=O)N[C@@H](Cc1ccc(O)cc1)C(=O)N1CCC[C@H]1C(=O)N[C@@H](CCCNC(=N)N)C(=O)N[C@H](C(=O)N[C@@H](CCC(=O)O)C(=O)N[C@H](C(=O)NCC(=O)N[C@@H](CO)C(=O)NCC(=O)N[C@@H](CO)C(=O)N1CCC[C@H]1C(N)=O)[C@@H](C)O)[C@@H](C)O)[C@@H](C)O` [compound 34, [N-terminal(C20 diacid-gGlu), 23Y, 30S, 31G]mimylin] ({C20 diacid-γGlu}-EASELSTAALGRLSAELHELATYPRTETGSGSP-NH2), the Solubility entry is reported as “≧200 μM” (pH 3.0); “≧200 μM” (pH 4.0); “≧200 μM” (pH 5.0); “≧200 μM” (pH 6.0); “≧200 μM” (pH 6.5); “≧200 μM” (pH 7.0). Moreover, the Solubility result is reported as “≧200 μM” (pH 7.5) and “≧200 μM” (pH 8.0).
Turning to `CC(C)C[C@H](NC(=O)[C@H](C)NC(=O)[C@H](C)NC(=O)[C@@H](NC(=O)[C@H](CO)NC(=O)[C@H](CC(C)C)NC(=O)[C@H](CCC(=O)O)NC(=O)[C@H](CO)NC(=O)[C@H](C)NC(=O)CC[C@H](NC(=O)CCCCCCCCCCCCCCCCCCC(=O)O)C(=O)O)[C@@H](C)O)C(=O)NCC(=O)N[C@@H](CCCNC(=N)N)C(=O)N[C@@H](CC(C)C)C(=O)N[C@@H](CO)C(=O)N[C@@H](CCC(=O)O)C(=O)N[C@@H](CCC(=O)O)C(=O)N[C@@H](CC(C)C)C(=O)N[C@@H](Cc1cnc[nH]1)C(=O)N[C@@H](CCC(=O)O)C(=O)N[C@@H](CC(C)C)C(=O)N[C@@H](C)C(=O)N[C@H](C(=O)N[C@@H](CC(C)C)C(=O)N1CCC[C@H]1C(=O)N[C@@H](CCCNC(=N)N)C(=O)N[C@H](C(=O)N[C@@H](CCC(=O)O)C(=O)N[C@H](C(=O)NCC(=O)N[C@@H](CO)C(=O)NCC(=O)N[C@@H](CO)C(=O)N1CCC[C@H]1C(N)=O)[C@@H](C)O)[C@@H](C)O)[C@@H](C)O` [compound 66, [N-terminal(C20 diacid-gGlu), des1, 15E, 30S, 31G]mimylin] ({C20 diacid-γGlu}-ASELSTAALGRLSEELHELATLPRTETGSGSP-NH2), the Solubility result was “≧200 μM” (pH 3.0); “≧200 μM” (pH 4.0); “≧200 μM” (pH 5.0); “≧200 μM” (pH 6.0); “≧200 μM” (pH 6.5); “≧200 μM” (pH 7.0). For the same compound, the Solubility entry reads like this: (pH 7.5) “≧200 μM”; (pH 8.0) “≧200 μM”.
`CC(C)C[C@H](NC(=O)CC[C@H](NC(=O)CCCCCCCCCCCCCCCCCCC(=O)O)C(=O)O)C(=O)N[C@@H](CO)C(=O)NCC(=O)N[C@@H](CC(C)C)C(=O)N[C@@H](CO)C(=O)N[C@H](C(=O)N[C@@H](C)C(=O)N[C@H](C(=O)N[C@@H](CC(C)C)C(=O)NCC(=O)N[C@@H](CCCNC(=N)N)C(=O)N[C@@H](CC(C)C)C(=O)N[C@@H](CO)C(=O)N[C@@H](C)C(=O)N[C@@H](CCC(=O)O)C(=O)N[C@@H](CC(C)C)C(=O)N[C@@H](Cc1cnc[nH]1)C(=O)N[C@@H](CCC(=O)O)C(=O)N[C@@H](CC(C)C)C(=O)N[C@@H](CO)C(=O)N[C@H](C(=O)N[C@@H](Cc1ccc(O)cc1)C(=O)N1CCC[C@H]1C(=O)N[C@@H](CCCNC(=N)N)C(=O)N[C@H](C(=O)N[C@@H](CCC(=O)O)C(=O)N[C@H](C(=O)NCC(=O)N[C@@H](CO)C(=O)NCC(=O)N[C@H](C(=O)N[C@@H](Cc1ccc(O)cc1)C(N)=O)[C@@H](C)O)[C@@H](C)O)[C@@H](C)O)[C@@H](C)O)C(C)C)[C@@H](C)O` [compound 123, [N-terminal(C20 diacid-gGlu), des1, 2L, 4G, 9V, 21S, 23Y, 30S, 31G, 32T, 33Y]mimylin] ({C20 diacid-γGlu}-LSGLSTAVLGRLSAELHELSTYPRTETGSGTY-NH2): the Solubility entry (pH 3.0) is “≧200 μM”; the Solubility entry (pH 4.0) was “≧200 μM”; the Solubility result (pH 6.0) was “≧200 μM”; the Solubility result (pH 6.5) is “≧200 μM”; the Solubility result (pH 7.0) was “≧200 μM”; the Solubility result (pH 7.5) is given as “≧200 μM”. Also, where the note is “pH 8.0”, the Solubility result is recorded as “≧200 μM”. This compound registered a solubility at 18 h (pH 5.0) of 2 µM (≈ 7.64 µg/mL).
As to `CC(C)C[C@H](NC(=O)[C@H](CCC(=O)O)NC(=O)[C@H](Cc1cnc[nH]1)NC(=O)[C@H](CC(C)C)NC(=O)[C@H](CCC(=O)O)NC(=O)[C@H](C)NC(=O)[C@H](CO)NC(=O)[C@H](CC(C)C)NC(=O)[C@H](CCCNC(=N)N)NC(=O)CNC(=O)[C@H](CC(C)C)NC(=O)[C@@H](NC(=O)[C@H](C)NC(=O)[C@@H](NC(=O)[C@H](CO)NC(=O)[C@@H](NC(=O)[C@H](CCC(=O)O)NC(=O)[C@H](CO)NC(=O)[C@H](C)NC(=O)CC[C@H](NC(=O)CCCCCCCCCCCCCCCCC(=O)O)C(=O)O)C(C)C)[C@@H](C)O)C(C)C)C(=O)N[C@@H](C)C(=O)N[C@H](C(=O)N[C@@H](CC(C)C)C(=O)N1CCC[C@H]1C(=O)N[C@@H](CCCNC(=N)N)C(=O)N[C@H](C(=O)N[C@@H](CCC(=O)O)C(=O)N[C@H](C(=O)NCC(=O)N[C@@H](CO)C(=O)NCC(=O)N[C@@H](CO)C(=O)N1CCC[C@H]1C(N)=O)[C@@H](C)O)[C@@H](C)O)[C@@H](C)O` [compound 86, [N-terminal(C18 diacid-gGlu), des1, 5V, 9V, 30S, 31G]mimylin] ({C18 diacid-γGlu}-ASEVSTAVLGRLSAELHELATLPRTETGSGSP-NH2), the Solubility result reads like this: (pH 3.0) “≧200 μM”; (pH 4.0) “≧200 μM”; (pH 5.0) “≧200 μM”; (pH 6.5) “≧200 μM”; (pH 7.0) “≧200 μM”; (pH 7.5) “≧200 μM”. Also, the Solubility result (pH 8.0) is given as “≧200 μM”. In addition, the solubility at 18 h (pH 6.0) is recorded as 38 µM (≈ 139 µg/mL).
`CC(C)C[C@H](NC(=O)[C@H](C)NC(=O)[C@H](C)NC(=O)[C@@H](NC(=O)[C@H](CO)NC(=O)[C@H](CC(C)C)NC(=O)[C@H](CCC(=O)O)NC(=O)[C@H](CO)NC(=O)[C@H](C)N)[C@@H](C)O)C(=O)NCC(=O)N[C@@H](CCCNC(=N)N)C(=O)N[C@@H](CC(C)C)C(=O)N[C@@H](CO)C(=O)N[C@@H](C)C(=O)N[C@@H](CCC(=O)O)C(=O)N[C@@H](CC(C)C)C(=O)N[C@@H](Cc1cnc[nH]1)C(=O)N[C@@H](CCC(=O)O)C(=O)N[C@@H](CC(C)C)C(=O)N[C@@H](C)C(=O)N[C@H](C(=O)N[C@@H](CC(C)C)C(=O)N1CCC[C@H]1C(=O)N[C@@H](CCCNC(=N)N)C(=O)N[C@H](C(=O)N[C@@H](CCCCNC(=O)CC[C@H](NC(=O)CCCCCCCCCCCCCCCCCCC(=O)O)C(=O)O)C(=O)N[C@H](C(=O)NCC(=O)N[C@@H](CO)C(=O)NCC(=O)N[C@@H](CO)C(=O)N1CCC[C@H]1C(N)=O)[C@@H](C)O)[C@@H](C)O)[C@@H](C)O` [compound 55, [des1, 27K(C20 diacid-gGlu), 30S, 31G]mimylin]: the Solubility result (pH 3.0) is on record as “≧200 μM”; the Solubility entry (pH 4.0) was “≧200 μM”; the Solubility result (pH 5.0) is recorded as “≧200 μM”; the Solubility entry (pH 6.0) is reported as “≧200 μM”; the Solubility result (pH 6.5) is given as “≧200 μM”; the Solubility result (pH 7.0) is on record as “≧200 μM”. Further, the Solubility entry reads like this: (pH 7.5) “≧200 μM”; (pH 8.0) “≧200 μM”.
`CC(C)C[C@H](NC(=O)CNC(=O)[C@H](CO)NC(=O)[C@H](C)NC(=O)CC[C@H](NC(=O)CCCCCCCCCCCCCCCCCCC(=O)O)C(=O)O)C(=O)N[C@@H](CO)C(=O)N[C@H](C(=O)N[C@@H](C)C(=O)N[C@@H](C)C(=O)N[C@@H](CC(C)C)C(=O)NCC(=O)N[C@@H](CCCNC(=N)N)C(=O)N[C@@H](CC(C)C)C(=O)N[C@@H](CO)C(=O)N[C@@H](CCC(=O)O)C(=O)N[C@@H](CCC(=O)O)C(=O)N[C@@H](CC(C)C)C(=O)N[C@@H](Cc1cnc[nH]1)C(=O)N[C@@H](CCC(=O)O)C(=O)N[C@@H](CC(C)C)C(=O)N[C@@H](CCC(N)=O)C(=O)N[C@H](C(=O)N[C@@H](Cc1ccc(O)cc1)C(=O)N1CCC[C@H]1C(=O)N[C@@H](CCCNC(=N)N)C(=O)N[C@H](C(=O)N[C@@H](CCC(=O)O)C(=O)N[C@H](C(=O)NCC(=O)N[C@@H](CO)C(=O)NCC(=O)N[C@H](C(=O)N[C@@H](Cc1ccc(O)cc1)C(N)=O)[C@@H](C)O)[C@@H](C)O)[C@@H](C)O)[C@@H](C)O)[C@@H](C)O` [compound 113, [N-terminal(C20 diacid-gGlu), des1, 4G, 15E, 21Q, 23Y, 30S, 31G, 32T, 33Y]mimylin] ({C20 diacid-γGlu}-ASGLSTAALGRLSEELHELQTYPRTETGSGTY-NH2): the Solubility entry reads like this: (pH 3.0) “≧200 μM”; (pH 6.0) “≧200 μM”; (pH 6.5) “≧200 μM”; (pH 7.0) “≧200 μM”; (pH 7.5) “≧200 μM”; (pH 8.0) “≧200 μM”. The solubility at 18 h by setting is: (pH 4.0) 195 µM (≈ 751 µg/mL); (pH 5.0) 57 µM (≈ 219 µg/mL).
